# Experimental data from US20240124444A1 (Celgene Corporation, priority 2020, published 2024).
# Where two headings read alike, the source gives them in different places.
# Tested on: C. parvum strain UGA1
# Experiment: C. parvum growth inhibition assay (Nluc luminescence in HCT-8 cells)
# Format: cell-based, Cryptosporidium parvum
# Conditions: for inhibition at 1 µM / inhibition at 10 µM: Cryptosporidium parvum, HCT-8; for inhibition at 1 µM: read-out: % inh @ 1 uM C. parvum; for inhibition at 10 µM: read-out: % inh @ 10 uM C. parvum
# [1] = single point inhibition @ 10 uM
# [2] = single point inhibition at 1 uM
# [3] = single point inhibition at 10 uM
SMILES,inhibition at 1 µM (single point inhibition @ 1 uM),inhibition at 10 µM [1],inhibition at 1 µM [2],inhibition at 10 µM [3],also measured
"Cc1cc(-c2cc3cnc(NC(=O)[C@H]4C[C@H](O)C4)cc3[nH]2)ccn1 [Example 187, (1r,3r)-3-hydroxy-N-(2-(2-methylpyridin-4-yl)-1H-pyrrolo[3,2-c]pyridin-6-yl)cyclobutanecarboxamide]",33 to 66%,67 to 100%,–,–,–
"COc1nccc(-c2cc3cnc(NC(=O)c4ccc(OC5CCOCC5)cc4)cc3n2C)n1 [Example 188, N-(2-(2-methoxypyrimidin-4-yl)-1-methyl-1H-pyrrolo[3,2-c]pyridin-6-yl)-4-(tetrahydro-2H-pyran-4-yloxy)benzamide]",0 to 33%,67 to 100%,–,–,–
"c1ccc(Nc2cc3[nH]c(-c4cccnc4)cc3cn2)cc1 [Example 189, N-phenyl-2-(pyridin-3-yl)-1H-pyrrolo[3,2-c]pyridin-6-amine]",0 to 33%,67 to 100%,–,–,–
"CNC(=O)c1ccc(Nc2cc3[nH]c(-c4ccnc(C)c4)cc3cn2)cc1 [Example 190, N-methyl-4-(2-(2-methylpyridin-4-yl)-1H-pyrrolo[3,2-c]pyridin-6-ylamino)benzamide]",0 to 33%,67 to 100%,–,–,–
"CO[C@H]1C[C@@H](C(=O)Nc2cc3[nH]c(-c4ccnc(C)c4)cc3cn2)C1 [Example 191, (1s,3s)-3-methoxy-N-(2-(2-methylpyridin-4-yl)-1H-pyrrolo[3,2-c]pyridin-6-yl)cyclobutanecarboxamide]",0 to 33%,67 to 100%,–,–,–
"COCCn1cc(Nc2cc3[nH]c(-c4ccncc4)cc3cn2)cn1 [Example 192, N-(1-(2-methoxyethyl)-1H-pyrazol-4-yl)-2-(pyridin-4-yl)-1H-pyrrolo[3,2-c]pyridin-6-amine]",33 to 66%,67 to 100%,–,–,–
"CSc1ccc(Nc2cc3c(cn2)cc(-c2cnn(C)c2)n3C)cc1 [Example 193, 1-methyl-2-(1-methyl-1H-pyrazol-4-yl)-N-(4-(methylthio)phenyl)-1H-pyrrolo[3,2-c]pyridin-6-amine]",0 to 33%,67 to 100%,–,–,–
"Cc1cc(-c2cc3cnc(NC(=O)[C@H]4C[C@@H](O)C4)cc3[nH]2)ccn1 [Example 194, (1s,3s)-3-hydroxy-N-(2-(2-methypyridin-4-yl)-1H-pyrrolo[3,2-c]pyridin-6-yl)cyclobutanecarboxamide]",0 to 33%,67 to 100%,–,–,–
"Cn1ncc2ccc(Nc3cc4[nH]c(-c5ccncc5)cc4cn3)cc21 [Example 195, 1-methyl-N-(2-(pyridin-4-yl)-1H-pyrrolo[3,2-c]pyridin-6-yl)-1H-indazol-6-amine]",67 to 100%,67 to 100%,–,–,–
"COc1cccc(Nc2cc3[nH]c(-c4cnn(C)c4)cc3cn2)c1 [Example 197, N-(3-methoxyphenyl)-2-(1-methyl-1H-pyrazol-4-yl)-1H-pyrrolo[3,2-c]pyridin-6-amine]",0 to 33%,67 to 100%,–,–,–
"CC(=O)Nc1cc2[nH]c(-c3cccnc3)cc2cn1 [Example 198, N-(2-(pyridin-3-yl)-1H-pyrrolo[3,2-c]pyridin-6-yl)acetamide]",–,–,0 to 33%,67 to 100%,–
"O=C(Nc1cc2[nH]c(-c3ccnc(C(F)(F)F)n3)cc2cn1)C1C2CCCC21 (stereo not drawn) [Example 199, N-(2-(2-(trifluoromethyl)pyrimidin-4-yl)-1H-pyrrolo[3,2-c]pyridin-6-yl)bicyclo[3.1.0]hexane-6-carboxamide]",–,–,0 to 33%,67 to 100%,–
"Cn1cc(C(=O)Nc2cc3c(cn2)cc(-c2ccnc(C(F)(F)F)n2)n3C)cn1 [Example 200, 1-methyl-N-(1-methyl-2-(2-(trifluoromethyl)pyrimidin-4-yl)-1H-pyrrolo[3,2-c]pyridin-6-yl)-1H-pyrazole-4-carboxamide]",–,–,33 to 66%,67 to 100%,–
"O=C(Nc1cc2[nH]c(-c3nc[nH]n3)cc2cn1)C1CC1 [Example 201, N-(2-(1H-1,2,4-triazol-3-yl)-1H-pyrrolo[3,2-c]pyridin-6-yl)cyclopropanecarboxamide]",–,–,0 to 33%,67 to 100%,–
"Cc1cc(-c2cc3cnc(NC(=O)C4CC(C)(O)C4)cc3[nH]2)ccn1 (stereo not drawn) [Example 202, 3-hydroxy-3-methyl-N-(2-(2-methylpyridin-4-yl)-1H-pyrrolo[3,2-c]pyridin-6-yl)cyclobutanecarboxamide]",–,–,0 to 33%,67 to 100%,–
"COc1ccc(Nc2cc3c(cn2)cc(-c2cnn(C)c2)n3C)cc1 [Example 203, N-(4-methoxyphenyl)-1-methyl-2-(1-methyl-1H-pyrazol-4-yl)-1H-pyrrolo[3,2-c]pyridin-6-amine]",–,–,0 to 33%,67 to 100%,–
"COc1cccc(Nc2cc3[nH]c(-c4cncn4C)cc3cn2)c1 [Example 204, N-(3-methoxyphenyl)-2-(1-methyl-1H-imidazol-5-yl)-1H-pyrrolo[3,2-c]pyridin-6-amine]",–,–,33 to 66%,67 to 100%,–

SMILES,inhibition at 1 µM (single point inhibition @ 1 uM),inhibition at 10 µM [1],inhibition at 1 µM [2],inhibition at 10 µM [3],also measured
"Cc1cc(-c2cc3cnc(NC(=O)c4cnn(C5CCC5)c4)cc3[nH]2)ccn1 [Example 205, 1-cyclobutyl-N-(2-(2-methylpyridin-4-yl)-1H-pyrrolo[3,2-c]pyridin-6-yl)-1H-pyrazole-4-carboxamide]",–,–,0 to 33%,67 to 100%,–
"COC1CCC(OC(=O)Nc2cc3[nH]c(-c4ccnc(C)c4)cc3cn2)CC1 (stereo not drawn) [Example 206, 4-methoxycyclohexyl 2-(2-methylpyridin-4-yl)-1H-pyrrolo[3,2-c]pyridin-6-ylcarbamate]",–,–,0 to 33%,67 to 100%,–
"O=C(CC1CCCC1)Nc1cc2[nH]c(-c3ccncc3)cc2cn1 [Example 207, 2-cyclopentyl-N-(2-(pyridin-4-yl)-1H-pyrrolo[3,2-c]pyridin-6-yl)acetamide]",–,–,0 to 33%,67 to 100%,–
"N#Cc1cc2cnc(Nc3cc(-c4nc[nH]n4)cc(C4CCOCC4)c3)cc2[nH]1 [Example 208, 6-(3-(tetrahydro-2H-pyran-4-yl)-5-(1H-1,2,4-triazol-3-yl)phenylamino)-1H-pyrrolo[3,2-c]pyridine-2-carbonitrile]",–,–,0 to 33%,67 to 100%,–
"Cc1cc(-c2cc3cnc(NC(=O)NC4CC4)cc3[nH]2)ccn1 [Example 209, 1-cyclopropyl-3-(2-(2-methylpyridin-4-yl)-1H-pyrrolo[3,2-c]pyridin-6-yl)urea]",–,–,0 to 33%,67 to 100%,–
"Cn1cc(-c2cc3cnc(NC(=O)C4CC4)cc3[nH]2)cn1 [Example 210, N-(2-(1-methyl-1H-pyrazol-4-yl)-1H-pyrrolo[3,2-c]pyridin-6-yl)cyclopropanecarboxamide]",–,–,0 to 33%,67 to 100%,–
"COc1nccc(-c2cc3cnc(NC(=O)C4C5CCCCC54)cc3n2C)n1 (stereo not drawn) [Example 211, N-(2-(2-methoxypyrimidin-4-yl)-1-methyl-1H-pyrrolo[3,2-c]pyridin-6-yl)bicyclo[4.1.0]heptane-7-carboxamide]",–,–,0 to 33%,67 to 100%,–
"Cc1cc(-c2cc3cnc(NC(=O)[C@H]4CCCO4)cc3[nH]2)ccn1 [Example 212, (R)-N-(2-(2-methylpyridin-4-yl)-1H-pyrrolo[3,2-c]pyridin-6-yl)tetrahyrdofuran-2-carboxamide]",–,–,–,–,% inh @ 1 uM C. parvum [2]: D (single point inhibition values of 0-33% (activity level D)); % inh @ 10 uM C. parvum [3]: F (between 67% and 100% (activity level F))
"Cn1cc(C(=O)Nc2cc3[nH]c(-c4ccnc(OCCC(F)(F)F)n4)cc3cn2)cn1 [Example 213, 1-methyl-N-(2-(2-(3,3,3-trifluoropropoxy)pyrimidin-4-yl)-1H-pyrrolo[3,2-c]pyridin-6-yl)-1H-pyrazole-4-carboxamide]",–,–,0 to 33%,67 to 100%,–
"CNC(=O)Nc1cc2[nH]c(-c3ccnc(C)c3)cc2cn1 [Example 214, 1-methyl-3-(2-(2-methylpyridin-4-yl)-1H-pyrrolo[3,2-c]pyridin-6-yl)urea]",–,–,0 to 33%,67 to 100%,–
"CC(C)(O)c1cc(-c2cc3cnc(Nc4cccc(-c5nc[nH]n5)c4)cc3[nH]2)ccn1 [Example 215, 2-(4-(6-(3-(1H-1,2,4-triazol-3-yl)phenylamino)-1H-pyrrolo[3,2-c]pyridin-2-yl)pyridin-2-yl)propan-2-ol]",–,–,33 to 66%,67 to 100%,–
"O=C(Nc1cc2[nH]c(-c3ccnc(OCCC(F)(F)F)n3)cc2cn1)c1cnn([C@H]2CC[C@H](O)CC2)c1 [Example 216, 1-((1r,4r)-4-hydroxycyclohexyl)-N-(2-(2-(3,3,3-trifluoropropoxy)pyrimidin-4-yl)-1H-pyrrolo[3,2-c]pyridin-6-yl)-1H-pyrazole-4-carboxamide]",–,–,0 to 33%,67 to 100%,–
"O=C(Nc1cc2[nH]c(-c3ccncc3)cc2cn1)C1CCCCC1 [Example 217, N-(2-(pyridin-4-yl)-1H-pyrrolo[3,2-c]pyridin-6-yl)cyclohexanecarboxamide]",–,–,0 to 33%,33 to 66%,–
"Cc1cc(-c2cc3cnc(NC(=O)c4cc(C(F)F)nn4C)cc3[nH]2)ccn1 [Example 218, 3-(difluoromethyl)-1-methyl-N-(2-(2-methylpyridin-4-yl)-1H-pyrrolo[3,2-c]pyridin-6-yl)-1H-pyrazole-5-carboxamide]",–,–,0 to 33%,33 to 66%,–
"COc1nccc(-c2cc3cnc(NC(=O)c4cnn([C@H]5CC[C@H](O)CC5)c4)cc3[nH]2)n1 [Example 219, 1-((1r,4r)-4-hydroxycyclohexyl)-N-(2-(2-methoxypyrimidin-4-yl)-1H-pyrrolo[3,2-c]pyridin-6-yl)-1H-pyrazole-4-carboxamide]",–,–,0 to 33%,33 to 66%,–
"COc1nccc(-c2cc3cnc(NC(=O)c4cccc5c4cnn5C)cc3[nH]2)n1 [Example 220, N-(2-(2-methoxypyrimidin-4-yl)-1H-pyrrolo[3,2-c]pyridin-6-yl)-1-methyl-1H-indazole-4-carboxamide]",–,–,0 to 33%,33 to 66%,–
